Patent US7820628B2, “Tumor lesion regression and conversion in situ into autologous tumor vaccines by compositions that result in anti-Gal antibody binding” (University of Massachusetts Medical School, priority 2005, dated 2010)

Tested on: human natural anti-Gal
Assay: TLC immunostaining of red blood cell glycolipids with human natural anti-Gal
Type: binding
Conditions: glycolipids on thin layer chromatography plates
Description: A rich source for α-gal glycolipids is rabbit red blood cells. The two major glycosphingolipids (GSL), i.e. glycolipids with ceramide tail, in rabbit red blood cell membranes are ceramide (Cer) trihexoside (CTH, with 3 sugars [hexoses], present also in human red blood cells) with the structure Galα1-4Galβ1-4Glc-Cer and ceramide pentahexoside (CPH, with 5 sugars [hexoses]) with α-gal epitopes as terminal part of the CPH structure of Galα1-3Galβ1-4GlcNAcβ1-3Galβ1-4Glc-Cer (Eto T, Iichikawa Y, Nishimura K, Ando S, Yamakawa T J. Biochem. (Tokyo) 1968; 64: 205-13, and Stellner K, Saito H, Hakomori S. Arch. Biochem. Biophys. 1973; 133: 464-72) (See FIG. 1 and FIG. 6A, lane 1).
The use of α-gal glycolipids in the clinical setting may require much more material than that isolated from rabbit red blood cell membranes. The logistic limitations in supplies of large amounts of rabbit red blood cells can be overcome by the use of bovine red blood cells (i.e., for example, cow) instead of rabbit red blood cells since there is no practical limit to the amounts of bovine blood which can be supplied for preparation of α-gal glycolipids. […]

With “Galα1-3Galβ1-4GlcNAcβ1-3Galβ1-4Glc-Cer [CPH]” the “anti-Gal binding on TLC immunostaining” value was “binding of the antibody to CPH”.
